# Assays:
# [1] = Hemodynamic test (blood pressure and heart rate during intravenous injection); type: in vivo, Male SD rats; conditions: rat, i.v.
# Procedure: Male SD rats (nine weeks old, body weight: 270 g to 320 g, supplied by Japan SLC, Inc.) were employed. Each of the rats was anesthetized with pentobarbital sodium (30 mg/kg, intraperitoneal injection) and then fixed in the dorsal position. A tube was orally inserted into the trachea, and artificial ventilation was carried out by means of a ventilator for small animals. A catheter (INTRAMEDIC Polyethylene Tubing PE50, CLAY ADAMS) was inserted into the femoral artery and the femoral vein, and systolic blood pressure, diastolic blood pressure, and mean blood pressure were measured in the femoral artery. Heart rate was measured by means of an electrocardiograph. A drug sample was injected through the catheter indwelled in the femoral vein by means of a syringe pump (Model PHD 4400, HARVARD). Specifically, after stabilization of hemodynamics, empty liposomes (n=8), adenosine only (n=8), and adenosine-retaining liposomes (n=8) were injected transvenously, respectively.
# In an empty liposome group, injection was carried out at 0.05 mL/minute for 10 minutes (one minute, five minutes, and 10 minutes after initiation of injection, blood pressure and heart rate were evaluated), and, for five minutes after completion of injection, blood pressure and heart rate were evaluated. Thereafter, evaluation was carried out in a manner similar to that described above at an injection rate of 0.1 mL/minute, 0.2 mL/minute, or 0.4 mL/minute. In an adenosine-only group or an adenosine-retaining liposome group, injection was initiated at 0.05 mL/minute (225 μg/kg/minute as reduced to adenosine), and cumulative administration was carried out through the same protocol as in the case of the empty liposome group.
# [2] = cited from earlier work
# [3] = test system: ischemia-reperfusion model rat; assay: Ischemia-reperfusion test (rat), myocardial infarct size; type: in vivo, Male SD rats; conditions: 900 μg/kg/minute i.v. for 10 minutes, injection before ischemia, 72 hours after reperfusion
# Procedure: Similar to the case of the hemodynamic test, male SD rats were employed. Each of the rats was anesthetized and artificially ventilated, and then thoracotomy was carried out at the thoracic sidewall. The left anterior descending coronary artery (LAD) was ligated by means of a suturing needle with suture for 30 minutes, and then blood flow was restored, to thereby prepare an ischemia-reperfusion model. A drug sample was injected through a catheter (INTRAMEDIC Polyethylene Tubing PE50, CLAY ADAMS) indwelled in the femoral vein.
# In this test, an adenosine-retaining liposome group were divided into two groups: a group received adenosine-retaining liposomes before ischemia (injected for 10-minute before ischemia), and a group received adenosine-retaining liposomes before reperfusion (injected for 10-minute initiated 5 minutes before reperfusion). In the other groups, injection was carried out before ischemia (injected for 10-minute before ischemia). […]
# Each of the rats was anesthetized 72 hours after reperfusion, and then thoracotomy was carried out again. […] After staining, the specimens were photographed, and an ischemic risk area (non-Evans blue-stained area) and an infarct area (non-TTC-stained area) were determined by means of Win ROOF Version 5.5 (product of Mitani Corporation). Infarct size was calculated by dividing the infarct area by the ischemic risk area.
# [4] = ten minutes after initiation of adenosine injection at 225 μg/kg/minute
# [5] = ten minutes after initiation of adenosine injection at 450 μg/kg/minute
# [6] = ten minutes after initiation of adenosine injection at 900 μg/kg/minute
# [7] = ten minutes after initiation of adenosine injection at 1,800 μg/kg/minute
compound,measurement,setting,value
"Nc1ncnc2c1ncn2[C@@H]1O[C@H](CO)[C@@H](O)[C@H]1O [adenosine, Adenosine]",heart rate,[1]; [4],357±25 bpm
same,mean blood pressure,[1]; [4],101±12 mmHg
same,heart rate,[1]; [5],324±25 bpm
same,mean blood pressure,[1]; [5],93±14 mmHg
same,heart rate,[1]; [6],296±12 bpm
same,mean blood pressure,[1]; [6],84±11 mmHg
same,heart rate,[1]; [7],236±17 bpm
same,mean blood pressure,[1]; [7],75±11 mmHg
same,half life in blood,[2],< 10 s
same,myocardial infarct size (infarct area / ischemic risk area),[3],25.2±1.9%
